One series concerns HepG2 cells. Description: Drug/cytokine-induced cytotoxicity (% LDH release) concentration-response in HepG2 cells. The series is classed as cell-based, human. Also on record: key to Deltadiff: LDH release percentage points (drug/TNF Delta minus drug/VEH Delta). Conditions: for R10 / R10 IFN / R10 TNF / R10 TNF/IFN: 10 percent increase in LDH response above min, 0 when D10 = 0; for R10 IFN: with IFN; for R10 TNF: with TNF; for Deltadiff: Delta of drug/TNF curve minus Delta of drug/VEH curve (LDH percentage); for TNF change: D10TNF − D10VEH. A digest of the protocol:
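Cells at passage 6-16 were treated for 24 hours with drug or vehicle (water or DMSO <0.5%), alone or with TNF (10 ng/ml) and/or IFN (10 ng/ml), after overnight attachment. Cytotoxicity was scored as LDH released into medium; concentrations were expressed as [drug]/Cmax, with four-parameter logistic fits giving EC50, EC10 and R10 (+10 LDH points over baseline).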

A short description of series [1]: Logistic regression classification model: probability that a drug is associated with IDILI. Set-up: species or system human. To be noted: probability that drug is associated with IDILI; covariates Deltadiff, EC50 VEH, EC50 TNF, Delta VEH, Cmax; optimal cutoff 0.46. The text has this:
Classification modeling using defined covariates. In the second phase of analysis, classification models were developed using logistic regression with covariates as independent variables in the analysis and known IDILI classification as the dependent variable. A model selection process was used to determine if a covariate or set of covariates is associated with IDILI liability. Covariates were first evaluated individually to determine how well a particular covariate classified drugs according to IDILI liability, and then covariates were evaluated in combination. Combinations of covariates were selected to maximize the ability of the model to distinguish between drugs associated or not with IDILI. Specifically, covariates that describe changes in efficacy (Delta, Deltadiff, etc.) were paired with covariates that describe changes in potency (EC50, EC10, R10, etc.) to find covariate combinations that led to models that most accurately discriminated between drugs that are and are not associated with IDILI. […] The logistic regression models follow the equation: […]
where ŷi is the calculated (predicted) probability that drug i with a vector of covariates xi is associated with IDILI. The β coefficients (β0, the regression intercept; and βi, the regression slopes for model covariates, xi) were derived from the logistic regression models using 1) combinations of the covariates (xi) generated by concentration-response modeling for each of the 24 drugs evaluated in this study, and 2) the true IDILI classification for the dependent variable yi (i.e., 1 for IDILI+drugs and 0 for IDILI-drugs). […] This occurs when a covariate almost perfectly separates observations into the appropriate categories. […] When separation or quasi-complete separation occurs, use of the standard method (i.e., maximum likelihood estimation) provides biased, unreliable estimates of βi.
Receiver operating characteristic (ROC) analysis. In the third phase of the statistical approach, the classification models, generated as logistic regression models using single covariates or combinations of covariates, were evaluated by ROC analysis to determine which model and corresponding sets of covariates led to the most accurate classification of drugs according to their potential to cause IDILI. An ROC curve was created for each model by graphing the true positive rate (sensitivity; i.e., proportion of drugs correctly classified as associated with IDILI) against the false positive rate (1-specificity; i.e., proportion of drugs incorrectly classified as associated with IDILI) at various probability cutoff thresholds (k). […] An area under the curve (AUC) and confidence interval was computed for each ROC curve (where each logistic regression model has one ROC curve). […] Corresponding to each ROC curve is an optimal threshold value (k*), the threshold yielding the highest point of accuracy on the curve (i.e., the point nearest the point […] on the curve). Thus, each ROC curve has a corresponding AUC and an optimal cutoff (k*) that corresponds to the highest point of accuracy on that ROC curve.

The conditions of series [2]: maximal plasma concentration after pharmacologic dosing in human patients; cited from earlier work.
For series [3] the following is noted: cited from earlier work; for True classification: IDILI in human patients; for IDILI liability: criteria of Xu et al. (2008).
Setting [4] is: Homo sapiens, HepG2, categorical, Delta threshold 10 LDH percentage points, drug alone (VEH), read-out: D10.
Setting [5] is: Homo sapiens, HepG2, maximal LDH response, drug alone (VEH), 24 h, read-out: max.

Where two headings read alike, the source gives them in different places.

Turning to `CC(=O)[C@]1(O)Cc2c(O)c3c(c(O)c2[C@@H](O[C@H]2C[C@H](N)[C@H](O)[C@H](C)O2)C1)C(=O)c1ccccc1C3=O` [Idarubicin], the R10 in the series on HepG2 cells (drug alone (VEH)) is 0 [drug]/Cmax. Besides, in the series with HepG2 cells, the “R10 IFN” value was 0 [drug]/Cmax, the “R10 TNF” value was 0 [drug]/Cmax and the Deltadiff was determined as 0. Besides, the “R10 TNF/IFN” value in the series with HepG2 cells (with TNF and IFN) was 0 [drug]/Cmax. In the series on HepG2 cells (setting [4]), the Emax is less than 10%. Besides, the Emax in the series with HepG2 cells (setting [5]) is 13.9%. For the same compound, the TNF change with HepG2 cells (categorical) was determined as 0. Further, the Estimated probability in series [1] is on record as 0.1275. In addition, the Cmax in series [2] was 20 nM. Moreover, in series [3], the True classification entry is on record as “IDILI−” and the IDILI liability entry was “IDILI−”.
On to `NNC(=O)c1ccncc1` [Isoniazid], for which the R10 in the series with HepG2 cells (drug alone (VEH)) was 440.9 [drug]/Cmax. In the series on HepG2 cells, the “R10 IFN” value is 434.0 [drug]/Cmax, the “R10 TNF” value is 268.1 [drug]/Cmax and the Deltadiff is listed as 38.8. In addition, the “R10 TNF/IFN” value in the series on HepG2 cells (with TNF and IFN) was 208.7 [drug]/Cmax. Further, the “cytotoxic interaction of drug with TNF” value with HepG2 cells (HepG2, 24 h, TNF 10 ng/ml) was “TNF significantly enhanced the cytotoxicity”. Besides, in the series with HepG2 cells (HepG2, 24 h, TNF and IFN 10 ng/ml each), the “effect of IFN coexposure on the drug/TNF cytotoxic interaction” value is “coexposure to IFN enhanced the cytotoxic interaction”. Further, the “cytotoxicity of drug on its own (LDH release)” value with HepG2 cells (HepG2, 24 h, absence of cytokines) is “statistically significant increase in LDH release”. Moreover, the D10 (LDH rise of at least 10 points, yes/no) in the series with HepG2 cells (Homo sapiens, HepG2, categorical, Delta threshold 10 LDH percentage points, drug alone (VEH)) was greater than 10%. Moreover, in the series with HepG2 cells (setting [5]), the Emax was 57.7%. Further, the TNF change with HepG2 cells (categorical) came out at 0. Moreover, the EC10 in the series with HepG2 cells (value corresponding to 10% of Delta (max-min), drug alone (VEH), NA = no significant increase) is 427.0 [drug]/Cmax. Further, the “EC10 IFN” value in the series on HepG2 cells (value corresponding to 10% of Delta, with IFN 10 ng/ml, NA = no significant increase) was 420.5 [drug]/Cmax. Also, the “EC10 TNF” value in the series on HepG2 cells (value corresponding to 10% of Delta, with TNF 10 ng/ml, NA = no significant increase) is 248.0 [drug]/Cmax. Further, the “EC10 TNF/IFN” value in the series with HepG2 cells (value corresponding to 10% of Delta, with TNF and IFN, NA = no significant increase) is 169.7 [drug]/Cmax. In series [1], the Estimated probability is reported as 0.7562. The peak concentration (Cmax) in series [2] was 77000 nM. Besides, in series [3], the True classification result is reported as “IDILI+” and the IDILI liability result is “IDILI+”.
In the case of `CC(CN1c2ccccc2Sc2ccccc21)N(C)C` (stereo not shown) [Promethazine], in the series with HepG2 cells (drug alone (VEH)), the R10 is 0 [drug]/Cmax. In addition, in the series on HepG2 cells, the “R10 IFN” value is 0 [drug]/Cmax, the “R10 TNF” value is 0 [drug]/Cmax and the Deltadiff came to 0. Also, in the series with HepG2 cells (with TNF and IFN), the “R10 TNF/IFN” value is 0 [drug]/Cmax. Moreover, the Emax in the series with HepG2 cells (setting [4]) was less than 10%. In addition, the Emax with HepG2 cells (setting [5]) was found to be 17%. In addition, the TNF change in the series with HepG2 cells (categorical) is reported as 0. The Estimated probability in series [1] is on record as 0.1275. In addition, in series [2], the Cmax is 60 nM. In series [3], the True classification result is “IDILI−” and the IDILI liability entry is “IDILI−”.
`CS(=O)(=O)c1ccc(C2=C(c3ccccc3)C(=O)OC2)cc1` [Rofecoxib]: in the series with HepG2 cells (drug alone (VEH)), the R10 was 0 [drug]/Cmax. In addition, in the series with HepG2 cells, the “R10 IFN” value was 0 [drug]/Cmax, the “R10 TNF” value is 0 [drug]/Cmax and the Deltadiff is listed as 0. For the same compound, the “R10 TNF/IFN” value in the series on HepG2 cells (with TNF and IFN) was 0 [drug]/Cmax. For the same compound, the Emax with HepG2 cells (setting [4]) was less than 10%. Besides, in the series on HepG2 cells (setting [5]), the Emax worked out at 12.2%. In the series on HepG2 cells (categorical), the TNF change is listed as 0. In series [1], the Estimated probability was 0.1278. Also, the Cmax in series [2] is 1000 nM. For the same compound, in series [3], the True classification entry is on record as “IDILI−” and the IDILI liability entry is “IDILI−”.
In the case of `CN[C@H]1CC[C@@H](c2ccc(Cl)c(Cl)c2)c2ccccc21` [Sertraline], the R10 with HepG2 cells (drug alone (VEH)) is 0 [drug]/Cmax. In the series on HepG2 cells, the “R10 IFN” value is 0 [drug]/Cmax, the “R10 TNF” value was 0 [drug]/Cmax and the Deltadiff is 0. The “R10 TNF/IFN” value in the series on HepG2 cells (with TNF and IFN) is 0 [drug]/Cmax. The Emax in the series on HepG2 cells (setting [4]) is less than 10%. In addition, the Emax in the series with HepG2 cells (setting [5]) turned out to be 14%. In addition, in the series on HepG2 cells (categorical), the TNF change stood at 0. Also, the Estimated probability in series [1] is given as 0.1275. For the same compound, the Cmax in series [2] is 60 nM. Moreover, in series [3], the True classification entry is “IDILI−” and the IDILI liability entry is recorded as “IDILI−”.

The values are drawn from patent publication US20200003760A1, “IN-VITRO METHODS FOR CLASSIFYING DRUGS ACCORDING TO THEIR POTENTIAL TO CAUSE LIVER CELL INJURY” (Board of Trustees of Michigan State University, priority 2018, published 2020).
